Measurements as given in patent publication US6903052B2, “Nematicidal compositions and methods” (Divergence, Inc., priority 2002, dated 2005).

Test system: B. malayi
Assay: Nematicidal activity of tween-based emulsions against microfilarial nematodes
Assay type: cell-based, Brugia malayi

With `CCCCCCC(O)C/C=C\CCCCCCCC(=O)OC` (stereo not drawn) [Ricinoleic Acid (C18-methyl ester), 12-hydroxy-cis-9-octadecenoic acid methyl ester] the “percentage of non-motile microfilaria” value (24 hrs post-inoculation, 0.0008%) was 0%, the “percentage of non-motile microfilaria” value (24 hrs post-inoculation, 0.0016%) was 24.7% and the “percentage of non-motile microfilaria” value (24 hrs post-inoculation, 0.003%) was 100%. The “percentage of non-motile microfilaria” value (24 hrs post-inoculation, 0.005%) was 100%, the “percentage of non-motile microfilaria” value (24 hrs post-inoculation, 0.0067%) was 100% and the “percentage of non-motile microfilaria” value (24 hrs post-inoculation, 0.008%) was 100%. The “percentage of non-motile microfilaria” value (48 hrs post-inoculation, 0.0008%) was 0%, the “percentage of non-motile microfilaria” value (48 hrs post-inoculation, 0.0016%) was 64.2% and the “percentage of non-motile microfilaria” value (48 hrs post-inoculation, 0.003%) was 100%. The “percentage of non-motile microfilaria” value (48 hrs post-inoculation, 0.005%) was 100%, the “percentage of non-motile microfilaria” value (48 hrs post-inoculation, 0.0067%) was 100% and the “percentage of non-motile microfilaria” value (48 hrs post-inoculation, 0.008%) was 100%. For the same compound, the “Microfilarialcidal activity (in words)” value (tween-based emulsions) was “strong microfilarialcidal activity”.
